In PubChem BioAssay AID256 (DTP/NCI, 2004):
“And” between values parts separate entries of the source, which are not always exact repeats. Equal entries are not always repeated. Inconclusive results and toxic doses are left out. How the source made its calls: active means survival T/C of 150% or more; inactive means T/C below 125% in these data.

Test system: CD2F1 mice, L1210 leukemia ip, survival T/C
Experiment: NCI In Vivo Anticancer Drug Screen. Data for tumor model L1210 Leukemia (intraperitoneal) in CD2F1 (CDF1) mice
Details: endpoint: mean survival time, higher = longer survival
Outline: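 Tumor-bearing mice (transplanted tumor) were split into treated and vehicle control groups, and the measured endpoint of each treated group was divided by that of its vehicle controls.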

[1] = dose: 100.0 mg/kg/injection, schedule: Q04DX003 (ip), vehicle: saline with Tween-80
[2] = dose: 200.0 mg/kg/injection, schedule: Q04DX003 (ip), vehicle: saline with Tween-80
[3] = dose: 400.0 mg/kg/injection, schedule: Q04DX003 (ip), vehicle: saline with Tween-80
[4] = dose: 100.0 mg/kg/injection, schedule: Q01DX001 (ip), vehicle: saline with Tween-80
[5] = dose: 100.0 mg/kg/injection, schedule: Q01DX009 (ip), vehicle: saline with Tween-80
[6] = dose: 100.0 mg/kg/injection, schedule: Q04DX002 (ip), vehicle: saline with Tween-80
[7] = dose: 200.0 mg/kg/injection, schedule: Q01DX009 (ip), vehicle: saline with Tween-80
[8] = dose: 400.0 mg/kg/injection, schedule: Q01DX001 (ip), vehicle: saline with Tween-80
[9] = dose: 400.0 mg/kg/injection, schedule: Q01DX009 (ip), vehicle: saline with Tween-80
[10] = dose: 25.0 mg/kg/injection, schedule: Q01DX009 (ip), vehicle: saline with Tween-80
[11] = dose: 50.0 mg/kg/injection, schedule: Q01DX009 (ip), vehicle: saline with Tween-80
[12] = dose: 12.5 mg/kg/injection, schedule: Q01DX009 (ip), vehicle: saline with Tween-80
[13] = dose: 12.5 mg/kg/injection, schedule: Q04DX003 (ip), vehicle: saline with Tween-80
[14] = dose: 25.0 mg/kg/injection, schedule: Q04DX003 (ip), vehicle: saline with Tween-80
[15] = dose: 25.0 mg/kg/injection, schedule: Q01DX009 (ip), vehicle: water
[16] = dose: 50.0 mg/kg/injection, schedule: Q01DX009 (ip), vehicle: water
[17] = dose: 100.0 mg/kg/injection, schedule: Q01DX009 (ip), vehicle: water
[18] = dose: 200.0 mg/kg/injection, schedule: Q01DX009 (ip), vehicle: water

Measured: T/C

CCOC(=O)c1c(C)nc(C)c(C(=O)OCC)c1-c1cccc([N+](=O)[O-])c1
inactive: dose: 50.0 mg/kg/injection, schedule: Q04DX003 (ip), vehicle: saline with Tween-80 97 % of control | [1] 105 % of control | [2] 103 % of control

O=C(Nc1ccc(F)cc1)c1ccc(C(=O)Nc2ccc(F)cc2)cc1
inactive: [1] 100 % of control | [3] 94 % of control

CCOC(=O)c1ccc(NC(=O)N2CCC(CCCc3ccccc3)CC2)cc1
inactive: dose: 50.0 mg/kg/injection, schedule: Q01DX001 (ip), vehicle: saline with Tween-80 100 % of control | [4] 88 % of control and 98 % of control | [5] 87 % of control and 91 % of control | [6] 91 % of control and 95 % of control | [1] 98 % of control | [7] 87 % of control and 93 % of control | dose: 200.0 mg/kg/injection, schedule: Q04DX002 (ip), vehicle: saline with Tween-80 91 % of control | [2] 87 % of control | [8] 88 % of control and 94 % of control | [9] 93 % of control | dose: 400.0 mg/kg/injection, schedule: Q04DX002 (ip), vehicle: saline with Tween-80 90 % of control | [3] 90 % of control

CCCCCCCCCCCc1cc(=O)n(-c2cc(Cl)ccc2Cl)n1C
inactive: dose: 25.0 mg/kg/injection, schedule: Q04DX002 (ip), vehicle: saline with Tween-80 96 % of control | dose: 50.0 mg/kg/injection, schedule: Q04DX002 (ip), vehicle: saline with Tween-80 88 % of control | [6] 86 % of control

Cc1ccccc1NCC#N
inactive: [10] 101 % of control | [11] 97 % of control | [1] 93 % of control

Cc1c2ccncc2c(C)c2c1[nH]c1ccc(Br)cc12
inactive: dose: 50.0 mg/kg/injection, schedule: Q04DX003 (ip), vehicle: saline 101 % of control | dose: 100.0 mg/kg/injection, schedule: Q04DX003 (ip), vehicle: saline 101 % of control | dose: 200.0 mg/kg/injection, schedule: Q04DX003 (ip), vehicle: saline 103 % of control | dose: 400.0 mg/kg/injection, schedule: Q04DX003 (ip), vehicle: saline 103 % of control

Cc1c(N)nc(C(CC(N)=O)NCC(N)C(N)=O)nc1C(=O)NC(C(=O)NC(C)C(O)C(C)C(=O)NC(C(=O)NCCc1nc(-c2nc(C(=O)NCCCNC(C)c3ccccc3)cs2)cs1)C(C)O)C(OC1OC(CO)C(O)C(O)C1OC1OC(CO)C(O)C(OC(N)=O)C1O)c1cnc[nH]1 (stereo not drawn)
inactive: dose: 0.25 mg/kg/injection, schedule: Q01DX009 (ip), vehicle: water 100 % of control | dose: 0.5 mg/kg/injection, schedule: Q01DX009 (ip), vehicle: water 103 % of control and 105 % of control | dose: 1.0 mg/kg/injection, schedule: Q01DX009 (ip), vehicle: saline 103 % of control | dose: 1.0 mg/kg/injection, schedule: Q01DX009 (ip), vehicle: water 123 % of control and 98 % of control | dose: 2.0 mg/kg/injection, schedule: Q01DX009 (ip), vehicle: saline 106 % of control | dose: 2.0 mg/kg/injection, schedule: Q01DX009 (ip), vehicle: water 104 % of control and 109 % of control | dose: 4.0 mg/kg/injection, schedule: Q01DX009 (ip), vehicle: saline 104 % of control | dose: 4.0 mg/kg/injection, schedule: Q01DX009 (ip), vehicle: water 113 % of control and 102 % of control | dose: 8.0 mg/kg/injection, schedule: Q01DX009 (ip), vehicle: saline 106 % of control | dose: 8.0 mg/kg/injection, schedule: Q01DX009 (ip), vehicle: water 109 % of control | dose: 16.0 mg/kg/injection, schedule: Q01DX009 (ip), vehicle: saline 101 % of control | dose: 16.0 mg/kg/injection, schedule: Q01DX009 (ip), vehicle: water 113 % of control | dose: 32.0 mg/kg/injection, schedule: Q01DX009 (ip), vehicle: saline 89 % of control

N#CC1c2ccccc2C=CN1C(=O)OCC(Cl)(Cl)Cl (stereo not drawn)
inactive: dose: 100.0 mg/kg/injection, schedule: Q04DX003 (ip), vehicle: Klucel (hydroxypropylcellulose) (HPC) 102 % of control | dose: 200.0 mg/kg/injection, schedule: Q04DX003 (ip), vehicle: Klucel (hydroxypropylcellulose) (HPC) 102 % of control | dose: 400.0 mg/kg/injection, schedule: Q04DX003 (ip), vehicle: Klucel (hydroxypropylcellulose) (HPC) 103 % of control

CCC[CH2][Sn]1([CH2]CCC)[O]C2C(CO)OC(n3c(Br)c(C#N)c4c(N)ncnc43)C2[O]1 (stereo not drawn)
inactive: dose: 1.56 mg/kg/injection, schedule: Q01DX005 (ip), vehicle: distilled water + Tween-80 93 % of control | dose: 3.13 mg/kg/injection, schedule: Q01DX005 (ip), vehicle: distilled water + Tween-80 98 % of control

NC(=O)c1cc2c(N)[nH]nc2nc1N
inactive: dose: 6.25 mg/kg/injection, schedule: Q01DX009 (ip), vehicle: saline with Tween-80 97 % of control | dose: 6.25 mg/kg/injection, schedule: Q04DX003 (ip), vehicle: saline with Tween-80 94 % of control | [12] 103 % of control | [13] 97 % of control | [10] 92 % of control | [14] 92 % of control

CC(=O)Oc1cccc2c1C(=O)c1c(OC(C)=O)cccc1C2=O
inactive: [15] 102 % of control | [16] 93 % of control | [17] 96 % of control | [18] 88 % of control

CC(=O)C(=O)C(C)=O
inactive: [1] 94 % of control | [2] 91 % of control | [3] 105 % of control

COc1cc2nncc(Sc3cnnc4ccccc34)c2cc1OC
inactive: dose: 100.0 mg/kg/injection, schedule: Q01DX001 (ip), vehicle: other 92 % of control | dose: 200.0 mg/kg/injection, schedule: Q01DX001 (ip), vehicle: other 86 % of control | dose: 400.0 mg/kg/injection, schedule: Q01DX001 (ip), vehicle: other 92 % of control

C(=NCC1CCC(CN=Cc2ccco2)CC1)c1ccco1 (stereo not drawn)
inactive: [4] 107 % of control | dose: 200.0 mg/kg/injection, schedule: Q01DX001 (ip), vehicle: saline with Tween-80 101 % of control | [8] 101 % of control

N#[N+]c1c(C(=O)O)[nH]c(=O)[nH]c1=O
inactive: [12] 100 % of control | [13] 101 % of control | [10] 91 % of control | [14] 102 % of control | [11] 96 % of control

CS(=O)(=O)OCCn1c(=O)n(CCOS(C)(=O)=O)c(=O)n(CCOS(C)(=O)=O)c1=O
inactive: [1] 102 % of control | [2] 98 % of control | [3] 93 % of control

CC1=C(c2ccccc2)OS(=O)(=O)NC1=O
inactive: dose: 12.5 mg/kg/injection, schedule: Q01DX009 (ip), vehicle: water 93 % of control | [15] 91 % of control | [16] 93 % of control | [17] 93 % of control | [18] 88 % of control

CC(C)OC(=O)Nc1cc(F)c(F)cc1F
inactive: [5] 103 % of control | [7] 103 % of control | [9] 103 % of control

NP(=O)(Oc1cccc2c(OP(N)(=O)N(CCCl)CCCl)cccc12)N(CCCl)CCCl (stereo not drawn)
inactive: dose: 31.25 mg/kg/injection, schedule: Q01DX001 (ip), vehicle: distilled water + Tween-80 95 % of control | dose: 62.5 mg/kg/injection, schedule: Q01DX001 (ip), vehicle: distilled water + Tween-80 95 % of control | dose: 125.0 mg/kg/injection, schedule: Q01DX001 (ip), vehicle: distilled water + Tween-80 95 % of control | dose: 250.0 mg/kg/injection, schedule: Q01DX001 (ip), vehicle: distilled water + Tween-80 97 % of control | dose: 500.0 mg/kg/injection, schedule: Q01DX001 (ip), vehicle: distilled water + Tween-80 95 % of control

CC(C)(C)NC(=O)NCCCN1CCOCC1
inactive: dose: 100.0 mg/kg/injection, schedule: Q01DX009 (ip), vehicle: saline 102 % of control | dose: 200.0 mg/kg/injection, schedule: Q01DX009 (ip), vehicle: saline 98 % of control | dose: 400.0 mg/kg/injection, schedule: Q01DX009 (ip), vehicle: saline 91 % of control
